6 compounds from patent US20240382629A1, “HETEROBIVALENT AND HOMOBIVALENT AGENTS TARGETING FIBROBLAST ACTIVATION PROTEIN ALPHA AND/OR PROSTATE-SPECIFIC MEMBRANE ANTIGEN” (The Johns Hopkins University, priority 2021, published 2024) can be followed below.

Each structure is given as a SMILES string.

The subject of this series is U87 tumor. The series can be described thus: PET imaging and tissue biodistribution in U87 tumor-bearing mice. The class given is in vivo, mouse. Also noted: Biodistribution: Saliv. Gland: unit not given here. The procedure: Cell uptake assays, flow cytometry, and IHC were performed as described previously. Banerjee et al., 2019; Nimmagadda et al., 2018. PET imaging and biodistribution Sequential PET imaging and biodistribution studies were conducted to quantify and validate PET imaging data. Briefly, tumor-bearing mice were administrated approximately 7.4 MBq of radiotracer in 150 μL saline via tail-vein injection. They were randomized into the indicated groups of 3-4 mice before radiotracer injection.
In Experiment 1, bilateral xenografts of U87 (right flank) and PSMA+ PC3 PIP (left flank) tumors were established in male NSG mice (n=3), which underwent imaging followed by biodistribution over 24 h. […] A biodistribution study was further conducted with U87 tumors at 2 h post-injection (n=3) to compare the tissue distribution properties of ^64Cu-FP-L1 and ^64Cu-FAPI-04.

[1] abbreviates: head-to-head, 1 h, dose 20 μCi, n=5/group (FAPI-04 n = 3).
The mark [2] stands for this setting: 2 h + 10 nmol Sri-06-98, dose 200 μCi, n=3, in %ID/g.
Where [3] appears, read: 2 h, dose 200 μCi, n=3, in %ID/g.
[4] abbreviates: 4 h, dose 200 μCi, n=3, in %ID/g.
Setting [5] is: untitled table, radiolabel and time not given.
Setting [6] is: untitled table, radiolabel and time not given, in %ID/g.

`N#CC1CCCN1C(=O)CNC(=O)c1ccnc2ccc(OCCCN3CC4CN(C(=O)CN5CCN(CC(=O)O)CCN(CC(=O)O)CC5)CC4C3)cc12` (centres unmarked) [^64Cu-Sri-07-86, metal not drawn]: under setting [1], the “Biodistribution: Bladder” value was determined as 5.55 ± 4.26 % ID/g, the “Biodistribution: Blood” value came out at 2.54 ± 0.90 % ID/g, the “Biodistribution: Bone” value worked out at 2.84 ± 0.83 % ID/g and the “Biodistribution: Fat” value is listed as 0.31 ± 0.08 % ID/g. Besides, under setting [1], the “Biodistribution: Heart” value came out at 1.04 ± 0.28 % ID/g, the “Biodistribution: Kidney” value is reported as 4.00 ± 1.28 % ID/g, the “Biodistribution: Lacrimal gland” value is reported as 3.53 ± 2.93 % ID/g and the “Biodistribution: Liver” value worked out at 1.97 ± 0.36 % ID/g. For the same compound, under setting [1], the “Biodistribution: Lung” value is recorded as 2.02 ± 0.93 % ID/g, the “Biodistribution: Muscle” value is recorded as 1.65 ± 1.10 % ID/g, the “Biodistribution: Pancreas” value was determined as 1.89 ± 0.57 % ID/g and the “Biodistribution: Salivary Gland” value is listed as 2.77 ± 0.53 % ID/g. Under setting [1], the “Biodistribution: Small Intestine” value is reported as 3.15 ± 1.34 % ID/g, the “Biodistribution: Spleen” value was 1.13 ± 0.42 % ID/g, the “Biodistribution: Stomach” value was found to be 1.26 ± 0.45 % ID/g and the “Biodistribution: U87” value was 6.55 ± 1.41 % ID/g.

Regarding `N#C[C@@H]1CCCN1C(=O)CNC(=O)c1ccnc2ccc(OCCCNC(=O)CCc3cn(CCCC[C@H](NC(=O)CN4CCN(CC(=O)O)CCN(CC(=O)O)CC4)C(=O)NCCCOc4ccc5nccc(C(=O)NCC(=O)N6CCC[C@H]6C#N)c5c4)nn3)cc12` [^64Cu-FAPI-74, metal not drawn, reference compound], under setting [1], the “Biodistribution: Bladder” value was found to be 3.51 ± 0.30 % ID/g, the “Biodistribution: Blood” value is 2.48 ± 0.87 % ID/g, the “Biodistribution: Bone” value is recorded as 7.94 ± 0.78 % ID/g and the “Biodistribution: Fat” value came out at 0.48 ± 0.43 % ID/g. Moreover, under setting [1], the “Biodistribution: Heart” value is reported as 1.16 ± 0.28 % ID/g, the “Biodistribution: Kidney” value amounted to 3.83 ± 2.31 % ID/g, the “Biodistribution: Lacrimal gland” value amounted to 5.17 ± 1.51 % ID/g and the “Biodistribution: Liver” value came out at 1.69 ± 0.83 % ID/g. For the same compound, under setting [1], the “Biodistribution: Lung” value is given as 2.48 ± 0.64 % ID/g, the “Biodistribution: Muscle” value turned out to be 2.05 ± 0.84 % ID/g, the “Biodistribution: Pancreas” value is listed as 2.09 ± 1.12 % ID/g and the “Biodistribution: Salivary Gland” value is recorded as 4.42 ± 0.55 % ID/g. Further, under setting [1], the “Biodistribution: Small Intestine” value is listed as 3.80 ± 2.06 % ID/g, the “Biodistribution: Spleen” value is 1.23 ± 0.41 % ID/g, the “Biodistribution: Stomach” value amounted to 1.29 ± 0.45 % ID/g and the “Biodistribution: U87” value is on record as 11.42 ± 1.11 % ID/g.

Regarding `N#C[C@@H]1CCCN1C(=O)CNC(=O)c1ccnc2ccc(OCCCNC(=O)CCc3cn(CCCC[C@H](NC(=O)CN4CCN(CC(=O)O)CCN(CC(=O)O)CC4)C(=O)NCCCOc4ccc5nccc(C(=O)NCC(=O)N6CCC[C@H]6C#N)c5c4)nn3)cc12` [^64Cu-Sri-06-98, metal not drawn], under setting [2], the “Biodistribution: Bladder” value is reported as 5.61 ± 7.96, the “Biodistribution: Blood” value stood at 0.27 ± 0.08, the “Biodistribution: Bone” value came out at 0.59 ± 0.65 and the “Biodistribution: Fat” value stood at 0.07 ± 0.02. Also, under setting [2], the “Biodistribution: Heart” value is 0.17 ± 0.01, the “Biodistribution: Kidney” value was 1.57 ± 0.00, the “Biodistribution: Lacrimal gland” value worked out at 0.16 ± 0.02 and the “Biodistribution: Liver” value is recorded as 0.68 ± 0.16. Under setting [2], the “Biodistribution: Lung” value was 0.49 ± 0.01, the “Biodistribution: Muscle” value was 0.09 ± 0.02, the “Biodistribution: Pancreas” value stood at 0.21 ± 0.04 and the “Biodistribution: Salivary Glands” value is 0.34 ± 0.02. Under setting [2], the “Biodistribution: Small Intestine” value is listed as 0.54 ± 0.08, the “Biodistribution: Spleen” value is on record as 0.25 ± 0.01, the “Biodistribution: Stomach” value was 0.31 ± 0.02 and the “Biodistribution: U87” value amounted to 2.70 ± 1.00. Also, under setting [3], the “Biodistribution: Bladder” value was 1.63 ± 0.23, the “Biodistribution: Blood” value is on record as 3.49 ± 0.18, the “Biodistribution: Bone” value stood at 2.91 ± 0.36 and the “Biodistribution: Fat” value was 0.47 ± 0.02. Moreover, under setting [3], the “Biodistribution: Heart” value is 3.70 ± 0.22, the “Biodistribution: Kidney” value was found to be 2.00 ± 0.52, the “Biodistribution: Lacrimal gland” value was found to be 5.07 ± 2.20 and the “Biodistribution: Liver” value is 2.80 ± 0.31. Under setting [3], the “Biodistribution: Lung” value stood at 2.62 ± 0.11, the “Biodistribution: Muscle” value amounted to 2.46 ± 0.20, the “Biodistribution: Pancreas” value is 4.59 ± 2.38 and the “Biodistribution: Salivary Glands” value was 8.88 ± 1.37. Moreover, under setting [3], the “Biodistribution: Small Intestine” value came to 2.97 ± 0.33, the “Biodistribution: Spleen” value was 1.51 ± 0.14, the “Biodistribution: Stomach” value is given as 2.09 ± 1.00 and the “Biodistribution: U87” value was 7.64 ± 2.12. Besides, under setting [4], the “Biodistribution: Bladder” value came to 5.56 ± 1.53, the “Biodistribution: Blood” value is given as 2.54 ± 0.37, the “Biodistribution: Bone” value amounted to 2.69 ± 0.14 and the “Biodistribution: Fat” value was 0.50 ± 0.12. Under setting [4], the “Biodistribution: Heart” value was found to be 2.40 ± 0.12, the “Biodistribution: Kidney” value stood at 1.67 ± 0.03, the “Biodistribution: Lacrimal gland” value was determined as 4.54 ± 0.44 and the “Biodistribution: Liver” value was 2.68 ± 0.08. Also, under setting [4], the “Biodistribution: Lung” value came to 2.04 ± 0.10, the “Biodistribution: Muscle” value came out at 2.13 ± 0.14, the “Biodistribution: Pancreas” value is given as 4.54 ± 0.62 and the “Biodistribution: Salivary Glands” value was 5.92 ± 0.57. Besides, under setting [4], the “Biodistribution: Small Intestine” value worked out at 2.69 ± 0.42, the “Biodistribution: Spleen” value came out at 1.14 ± 0.16, the “Biodistribution: Stomach” value came to 1.60 ± 0.36 and the “Biodistribution: U87” value is 11.15 ± 1.49.

With `N#CC1CCCN1C(=O)CNC(=O)c1ccnc2ccc(OCCCNC(=O)CCc3cn(CCCC[C@H](NC(=O)c4ccc(F)nc4)C(=O)NCCNC(=O)CN4CCN(CC(=O)O)CCN(CC(=O)O)CCN(CC(=O)O)CC4)nn3)cc12` (some centres unmarked) [SRI-08-35], the “Biodistribution: Saliv. Gland” value under setting [5] is 7.49 ± 1.17. In addition, under setting [6], the “Biodistribution: Bladder” value is on record as 1.59 ± 0.32, the “Biodistribution: Blood” value worked out at 15.40 ± 1.08, the “Biodistribution: Bone” value was 3.75 ± 0.43 and the “Biodistribution: Fat” value was determined as 0.56 ± 0.20. In addition, under setting [6], the “Biodistribution: Heart” value was found to be 7.04 ± 0.93, the “Biodistribution: Kidney” value came out at 5.47 ± 0.73, the “Biodistribution: Lacrim Gland” value is on record as 5.27 ± 1.52 and the “Biodistribution: Liver” value worked out at 6.13 ± 0.67. Under setting [6], the “Biodistribution: Lung” value is listed as 9.40 ± 1.61, the “Biodistribution: Muscle” value was 1.94 ± 0.74, the “Biodistribution: Pancreas” value is 10.46 ± 2.88 and the “Biodistribution: Sm Intest” value was 8.20 ± 2.20. Further, under setting [6], the “Biodistribution: Spleen” value stood at 3.08 ± 0.27, the “Biodistribution: Stomach” value came to 2.17 ± 0.30 and the “Biodistribution: U87” value was found to be 7.84 ± 1.95.

On to `N#CC1CCCN1C(=O)CNC(=O)c1ccnc2ccc(OCCCNC(=O)CCc3cn(CC[C@H](NC(=O)c4ccc(F)nc4)C(=O)NCCNC(=O)CN4CCN(CC(=O)O)CCN(CC(=O)O)CCN(CC(=O)O)CC4)nn3)cc12` (some centres unmarked) [SRI-07-56], for which, under setting [5], the “Biodistribution: Saliv. Gland” value came to 7.59 ± 3.44. Under setting [6], the “Biodistribution: Bladder” value was 7.14 ± 3.21, the “Biodistribution: Blood” value is reported as 20.47 ± 8.29, the “Biodistribution: Bone” value turned out to be 4.47 ± 1.71 and the “Biodistribution: Fat” value was 0.49 ± 0.23. For the same compound, under setting [6], the “Biodistribution: Heart” value is 7.16 ± 3.22, the “Biodistribution: Kidney” value amounted to 5.16 ± 2.02, the “Biodistribution: Lacrim Gland” value is reported as 4.32 ± 1.56 and the “Biodistribution: Liver” value is on record as 6.87 ± 2.54. Further, under setting [6], the “Biodistribution: Lung” value worked out at 10.70 ± 4.41, the “Biodistribution: Muscle” value is on record as 2.06 ± 0.95, the “Biodistribution: Pancreas” value was 10.62 ± 3.62 and the “Biodistribution: Sm Intest” value came out at 9.55 ± 3.91. Also, under setting [6], the “Biodistribution: Spleen” value was found to be 4.21 ± 1.74, the “Biodistribution: Stomach” value worked out at 3.73 ± 1.63 and the “Biodistribution: U87” value was determined as 5.67 ± 2.42.

In the case of `N#C[C@@H]1CCCN1C(=O)CNC(=O)c1ccnc2ccc(OCCCN3CC4CN(C(=O)C(CCNC(=O)c5ccc(F)nc5)NC(=O)CN5CCN(CC(=O)O)CCN(CC(=O)O)CCN(CC(=O)O)CC5)CC4C3)cc12` (some centres unmarked) [SRI-08-37], under setting [5], the “Biodistribution: Saliv. Gland” value turned out to be 11.70 ± 1.32. Also, under setting [6], the “Biodistribution: Bladder” value was determined as 4.28 ± 4.14, the “Biodistribution: Blood” value came to 4.59 ± 0.50, the “Biodistribution: Bone” value was determined as 6.37 ± 0.98 and the “Biodistribution: Fat” value amounted to 1.04 ± 0.55. For the same compound, under setting [6], the “Biodistribution: Heart” value was determined as 2.24 ± 1.02, the “Biodistribution: Kidney” value is 2.82 ± 0.06, the “Biodistribution: Lacrim Gland” value is listed as 9.11 ± 2.71 and the “Biodistribution: Liver” value is 2.02 ± 0.13. For the same compound, under setting [6], the “Biodistribution: Lung” value was 2.96 ± 0.38, the “Biodistribution: Muscle” value was 2.74 ± 0.18, the “Biodistribution: Pancreas” value is 6.76 ± 1.47 and the “Biodistribution: Sm Intest” value is recorded as 3.36 ± 0.76. For the same compound, under setting [6], the “Biodistribution: Spleen” value is 1.45 ± 0.17, the “Biodistribution: Stomach” value was 1.85 ± 0.19 and the “Biodistribution: U87” value is recorded as 20.43 ± 1.73.
